Data as given in patent publication US9700042B2, “Nanoformulation of musk-derived bioactive ingredients for nanocosmetic applications” (priority 2014, dated 2017).

Tested on: tested microorganisms fungi and bacteria
Assay: Anti-microbial activities (disc diffusion, all test organisms)
Assay type: cell-based
Conditions: filter paper discs
Experimental: Pathogenic Fungi: Aspergillus niger, Aspergillus fumigatus, Aspergillus flavus, Fusarium oxysporum and Candida albicans were cultured on sabaroud dextrous agar media (Oxioid CM 41) at 25° C.
Pathogenic bacteria: Staphylococcus aureus and Pseudomonas aeroginosa were cultured on Mueller Hinton media (Oxioid CM 41) at 37° C.
Biological activity: Antimicrobial activities of the 3-hydroxyl p-Anisaldehyde (C8H8O3) and p-Hydroxy-acetophenone (C8H8O2) compounds were tested against the fungal species Aspergillus niger, Aspergillus fumigatus, Aspergillus flavus, Fusarium oxysporum and Candida albicans. […]
Antifungal activities: The agar disc diffusion method was used to evaluate the antifungal activities of the tested compounds (Bauer, A.W., et al., Antibiotic susceptibility testing by a standard single disk diffusion method, Amer. J. Clin. Pathol. 45:493-496 (1966)). […] The diameter of the inhibition zones were measured in millimeters after 4 days at 25±2° C. […]
Antibacterial activities: Antibacterial activities of the tested compounds were employed by used the agar disc diffusion method Hasenekoglu (1990). Suspension of the tested bacteria (10^6 CFU/μl ,O.D was measured calorimetry using spectrophotometer (Spectro, labomed, Inc.) at […]) were spread on Mueller Hinton Agar (Oxioid). […] The diameter of the inhibition zones were measured in millimeters after 24 h at 37° C. […]

CC(=O)c1ccc(O)cc1 [p-Hydroxyacetophenone]
Inhibition of growth of tested microorganisms (clear zones around discs): have the ability to inhibit the growth
